The results in this text go back to patent US20260315431A1, “NANOMATERIAL ENCAPSULATED BIOFILM INHIBITORS FOR DENTAL CARIES TREATMENT” (THE UAB RESEARCH FOUNDATION, priority 2023, published 2026).

One data set has as its target GtfB (Streptococcus mutans, UniProt P08987). Briefly: HA5/GtfB X-ray co-crystal structure. In kind it is binding. As to conditions: catalytic domain of GtfB.
Data set [1] can be described thus: HA5 loading into (PMAA)5 hydrogel (UV-visible spectroscopy). In kind it is physicochemical. As to conditions: (PMAA)5 hydrogel cubes soaked in 5 mg/mL HA5 in methanol, 48 h. Here is the method:
Encapsulation of HA5 inside (PMAA)5 hydrogels microparticles. Compound HA5 was encapsulated in the (PMAA)5 hydrogel cubes through post-loading by soaking the hydrogels in 5 mg/mL solution of HA5 in methanol for 48 h in the dark (FIGS. 1.7A-B). The free, non-encapsulated HA5 was removed from particle solution by rinsing with HEPES buffer (pH=7.4) five times using centrifugation at 5000 rpm for 10 min. The HA5 quantification was carried out with UV-visible spectroscopy (NanoDrop One C, ThermoFisher) at λ=448 nm using an HA5 calibration curve. The drug solution was analyzed before and after the exposure to the hydrogel particles and the differences in the absorbance spectra were used to determine the loading of the drug into the hydrogel network. […] Freshly extracted, intact third molars with flat surfaces obtained from Dr. Nathaniel Lawson's lab (UAB School of Dentistry, IRB-300001291) were used in these studies. The AFM silicon probes NSG30 (NT-MDT, resonance frequency 240-440 kHz, force constant 22-100 N m^−1, tip radii is 10 nm, scan rate is 0.5 Hz) were used for imaging the tooth surfaces in tapping mode before and after hydrogel adhesion. […] The height of the dried hydrogel cubes was determined using section profiles, which indicated an average particle height of 1.3±0.2 μm. […]

A short description of data set [2]: Body weight of animals, PEHA5 / HA5 study. As to conditions: 100 μM. Format: in vivo, gnotobiotic rats. The text has this:
The effect of PEHA5 on S. mutans colonization and virulence was compared side-by-side with HA5 using a well-established gnotobiotic rat model of dental caries^[50-54]. A (vehicle+infection only) group was included as a negative control. All rats from the experimental groups and from the control group were colonized with S. mutans UA159. […] Similar reductions in caries scores were also observed in sulcal caries scores and proximal caries scores (Table 5). We were unable to record the effect of the treatment on dentinal moderate (Dm) and dentinal extensive (Dx) scores in the proximal area due to the absence of dentinal lesions in the control and treated groups.
We used Fischer 344 rats that were bred and maintained in trexler isolators for this experiment. Male and female rat pups were removed from isolators at 20 days of age and randomly assigned into treatment groups of 5 rats/group in cages with filter tops. […] Each sample was serially diluted, plated on blood (BAP) and mitis-salivarius (MS) agar plates and incubated in an environment of 5% CO2 in air at 37° C. to quantify the level of total bacteria and S. mutans present in the plaque. […] After drying, the mandibles were sectioned and scored for caries activity using the Keyes method Caries scores were recorded for the buccal, sulcal and proximal molar surfaces individually so that differences among the surfaces can be distinguished. […]

Entries after “also recorded” stand apart in the source; their conditions may differ.

GtfB, sequence (P08987 265-1143): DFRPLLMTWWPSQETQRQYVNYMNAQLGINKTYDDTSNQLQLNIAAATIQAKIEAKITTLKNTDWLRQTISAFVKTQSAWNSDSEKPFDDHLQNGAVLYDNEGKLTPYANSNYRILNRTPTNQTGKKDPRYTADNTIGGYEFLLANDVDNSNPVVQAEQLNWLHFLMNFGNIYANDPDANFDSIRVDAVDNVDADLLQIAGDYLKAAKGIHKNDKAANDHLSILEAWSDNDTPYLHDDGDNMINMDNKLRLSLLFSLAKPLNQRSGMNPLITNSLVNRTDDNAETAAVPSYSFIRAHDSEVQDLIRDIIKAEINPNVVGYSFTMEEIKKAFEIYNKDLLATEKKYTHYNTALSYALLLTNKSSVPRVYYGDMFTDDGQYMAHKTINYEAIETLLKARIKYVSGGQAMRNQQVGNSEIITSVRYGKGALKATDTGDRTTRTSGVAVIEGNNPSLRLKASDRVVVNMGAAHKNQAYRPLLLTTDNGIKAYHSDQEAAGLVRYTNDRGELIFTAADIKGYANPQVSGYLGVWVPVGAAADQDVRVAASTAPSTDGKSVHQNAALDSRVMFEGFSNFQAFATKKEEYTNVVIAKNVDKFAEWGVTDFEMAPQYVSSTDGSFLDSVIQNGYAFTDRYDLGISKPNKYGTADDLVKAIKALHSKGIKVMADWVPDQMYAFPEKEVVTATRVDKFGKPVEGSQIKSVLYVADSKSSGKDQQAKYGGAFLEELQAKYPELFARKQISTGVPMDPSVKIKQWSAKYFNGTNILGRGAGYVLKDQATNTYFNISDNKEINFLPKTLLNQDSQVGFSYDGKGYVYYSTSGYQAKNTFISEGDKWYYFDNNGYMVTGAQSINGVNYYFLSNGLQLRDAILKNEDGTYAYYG

Consider `O=C1/C(=C/c2cc(O)c(O)cc2O)Oc2ccccc21` [HA5, 2-[(2′,4′,5′-Trihydroxyphenyl)methylidene]-2,3-dihydro-1-benzofuran-3-one], for which the “binding in HA5/GtfB co-crystal structure” value at GtfB is reported as “binding in the catalytic site of GtfB; also recorded: does not show any covalent bond”. For the same compound, in data set [1], the loading capacity is reported as 5.5×10^−3 ng of HA5 per particle. Further, the Weight in data set [2] is recorded as 145 ± 14 g. The “weight loss” value in data set [2] (4-week treatment) is reported as “did not experience any weight loss”.
